Here are results for seven molecules from DBAASP.

Assay [1] concerns Escherichia coli ATCC 25922. Kind of assay: ≥ marks a high value that may be exact or a test limit, other limits are often not marked, values filed in µg/mL are converted to µM.
The test system of assay [2] is Staphylococcus aureus ATCC 25923. The description is as above.

Each structure is given as a SMILES string. In brackets after ≈: the same amount, converted by molar mass.

What is called MIC is the lowest concentration that inhibits growth of the organism. Consider `CC[C@H](C)[C@H](NC(=O)[C@H](CCCN=C(N)N)NC(=O)[C@H](CCCCN)NC(=O)[C@H](CC(C)C)NC(=O)[C@H](CC(C)C)NC(=O)[C@H](C)N)C(=O)N[C@@H](CCCCN)C(=O)N[C@H](C(=O)N[C@@H](CC(C)C)C(=O)N[C@@H](CC(C)C)C(N)=O)[C@@H](C)O` [ALLKRIKTLL], for which the MIC in assay [1] and in assay [2] was more than 18 µM in each case. `CC[C@H](C)[C@H](NC(=O)CNC(=O)[C@@H](NC(=O)[C@H](CCCCN)NC(=O)[C@@H](NC(=O)[C@H](CCCCN)NC(=O)CN)C(C)C)[C@@H](C)CC)C(=O)N[C@@H](CC(N)=O)C(=O)NCC(=O)N[C@@H](Cc1ccccc1)C(=O)NCC(=O)N[C@@H](CCCN=C(N)N)C(=O)N[C@H](C(=O)NCC(=O)N[C@@H](CCCN=C(N)N)C(=O)N[C@@H](CC(C)C)C(=O)N[C@H](C(=O)N[C@@H](C)C(=O)O)C(C)C)[C@@H](C)CC` [GKVKIGINGFGRIGRLVA]: the MIC amounted to 69 µM (≈ 128 µg/mL) in assay [1] and 276 µM (≈ 512 µg/mL) in assay [2]. As to `CC[C@H](C)[C@H](NC(=O)[C@H](CCCN=C(N)N)NC(=O)[C@H](CCCCN)NC(=O)[C@H](CC(C)C)NC(=O)[C@H](CC(C)C)NC(=O)CN)C(=O)N[C@@H](CCCCN)C(=O)N[C@@H](C)C(=O)N[C@@H](CC(C)C)C(=O)N[C@@H](CC(C)C)C(N)=O` [GLLKRIKALL], the MIC in assay [1] was 14.2 µM (≈ 16 µg/mL); in assay [2] it was 7.11 µM (≈ 7.99 µg/mL).

In assay [2], `CC(C)C[C@H](NC(=O)[C@H](CCCN=C(N)N)NC(=O)[C@H](CCCN=C(N)N)NC(=O)[C@H](CC(C)C)NC(=O)[C@H](Cc1c[nH]c2ccccc12)NC(=O)[C@H](CCCN=C(N)N)NC(=O)[C@H](Cc1c[nH]c2ccccc12)NC(=O)[C@@H](NC(=O)[C@H](CCCCN)NC(=O)[C@H](CCCN=C(N)N)NC(=O)[C@@H](N)CC(C)C)C(C)C)C(N)=O` [LRKVWRWLRRL] showed a minimum inhibitory concentration (MIC) of 10 µM (≈ 15.8 µg/mL). In turn, `CC[C@H](C)[C@@H]1NC(=O)[C@H](CCCCN)NC(=O)[C@@H]2CCCN2C(=O)[C@H](Cc2cnc[nH]2)NC(=O)CNC(=O)[C@@H]2CSSC[C@@H]3NC(=O)[C@H](CO)NC(=O)CNC(=O)CNC(=O)[C@H](Cc4ccc(O)cc4)NC(=O)[C@H](CO)NC(=O)[C@H](CCSC)NC(=O)[C@@H](NC(=O)[C@@H](NC(=O)[C@@H](NC(=O)[C@@H]4CCCN4C(=O)[C@H](CO)NC(=O)[C@H](CC(N)=O)NC(=O)[C@@H](NC(=O)[C@H](CC(C)C)NC(=O)[C@@H](N)CCC(N)=O)[C@@H](C)CC)C(C)C)[C@@H](C)O)CSSC[C@H](NC(=O)[C@H](CCCN=C(N)N)NC1=O)C(=O)N[C@H](C(=O)N[C@@H](CCCN=C(N)N)C(=O)N[C@@H](CCCN=C(N)N)C(=O)N[C@@H](CCCCN)C(=O)O)CSSC[C@H](NC(=O)[C@H](CO)NC(=O)[C@H](CCCN=C(N)N)NC(=O)[C@H](CCC(N)=O)NC3=O)C(=O)N[C@@H](CC(N)=O)C(=O)NCC(=O)NCC(=O)N[C@@H](Cc1ccccc1)C(=O)N[C@@H](CCCN=C(N)N)C(=O)N[C@@H](CC(C)C)C(=O)NCC(=O)NCC(=O)N[C@@H](Cc1cnc[nH]1)C(=O)N2` [QLINSPVTCMSYGGSCQRSCNGGFRLGGHCGHPKIRCCRRK] yielded an MIC in assay [1] of 4.48 µM (≈ 20 µg/mL). The molecule `CC(C)C[C@H](NC(=O)[C@H](C)NC(=O)[C@@H](N)CO)C(=O)N[C@H](C(=O)NCC(=O)N[C@H]1CSSC[C@@H](C(=O)N[C@@H](Cc2ccccc2)C(=O)NCC(=O)N[C@@H](CCCN=C(N)N)C(=O)O)NC(=O)[C@@H]2CCCN2C(=O)[C@H](CCCCN)NC(=O)[C@@H]2CCCN2C(=O)[C@@H]2CCCN2C(=O)[C@H](Cc2ccc(O)cc2)NC(=O)[C@H](CO)NC(=O)[C@H](CCCCN)NC(=O)[C@H]([C@@H](C)O)NC(=O)CNC1=O)C(C)C` [SALVGCGTKSYPPKPCFGR] came in with a minimum inhibitory concentration (MIC) in assay [2] of 12.7 µM (≈ 25 µg/mL).

As to `CC(C)C[C@H](NC(=O)[C@H](Cc1ccccc1)NC(=O)[C@@H]1CCCN1C(=O)[C@H](Cc1ccc(O)cc1)NC(=O)[C@H](Cc1ccc(O)cc1)NC(=O)[C@H](Cc1c[nH]c2ccccc12)NC(=O)[C@@H]1CCCN1C(=O)[C@H](Cc1ccccc1)NC(=O)[C@H](CCCN=C(N)N)NC(=O)[C@H](CCCN=C(N)N)NC(=O)[C@@H](N)C(C)C)C(=O)N[C@@H](CCCN=C(N)N)C(=O)N[C@@H](CCCN=C(N)N)C(N)=O` [VRRFPWYYPFLRR], the MIC in assay [1] came to 16 µM (≈ 29.7 µg/mL).
